Experimental data as given in patent publication US7812183B2, “Benzopyran derivatives as potassium channel openers” (Janssen Pharmaceutica NV, priority 2005, dated 2010).

Target: T1, KATP channels (Homo sapiens, UniProt O60706+Q14654)
T1 construct: TE671 human medulloblastoma cells were obtained from ATCC; host or cells: TE671 human medulloblastoma cells
Assay: Potassium Channel Assay (FLIPR membrane potential, TE671 cells)
Type: cell-based
Conditions: TE671 human medulloblastoma cells, Membrane Potential Assay Dye, room temperature, hyperpolarization from KATP channel opening
Method in brief: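 Human medulloblastoma cells plated day before at 50K/well, loaded 15–30 min with membrane potential dye in HEPES buffer (2 mM KCl, 2 mM CaCl2, 5 mM glucose) at room temperature. Compound-induced hyperpolarization (fluorescence decrease) monitored 3 min; 5 μM glyburide then added to confirm KATP opener specificity.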

T1 sequence (O60706 1-1549 isoform O60706-2): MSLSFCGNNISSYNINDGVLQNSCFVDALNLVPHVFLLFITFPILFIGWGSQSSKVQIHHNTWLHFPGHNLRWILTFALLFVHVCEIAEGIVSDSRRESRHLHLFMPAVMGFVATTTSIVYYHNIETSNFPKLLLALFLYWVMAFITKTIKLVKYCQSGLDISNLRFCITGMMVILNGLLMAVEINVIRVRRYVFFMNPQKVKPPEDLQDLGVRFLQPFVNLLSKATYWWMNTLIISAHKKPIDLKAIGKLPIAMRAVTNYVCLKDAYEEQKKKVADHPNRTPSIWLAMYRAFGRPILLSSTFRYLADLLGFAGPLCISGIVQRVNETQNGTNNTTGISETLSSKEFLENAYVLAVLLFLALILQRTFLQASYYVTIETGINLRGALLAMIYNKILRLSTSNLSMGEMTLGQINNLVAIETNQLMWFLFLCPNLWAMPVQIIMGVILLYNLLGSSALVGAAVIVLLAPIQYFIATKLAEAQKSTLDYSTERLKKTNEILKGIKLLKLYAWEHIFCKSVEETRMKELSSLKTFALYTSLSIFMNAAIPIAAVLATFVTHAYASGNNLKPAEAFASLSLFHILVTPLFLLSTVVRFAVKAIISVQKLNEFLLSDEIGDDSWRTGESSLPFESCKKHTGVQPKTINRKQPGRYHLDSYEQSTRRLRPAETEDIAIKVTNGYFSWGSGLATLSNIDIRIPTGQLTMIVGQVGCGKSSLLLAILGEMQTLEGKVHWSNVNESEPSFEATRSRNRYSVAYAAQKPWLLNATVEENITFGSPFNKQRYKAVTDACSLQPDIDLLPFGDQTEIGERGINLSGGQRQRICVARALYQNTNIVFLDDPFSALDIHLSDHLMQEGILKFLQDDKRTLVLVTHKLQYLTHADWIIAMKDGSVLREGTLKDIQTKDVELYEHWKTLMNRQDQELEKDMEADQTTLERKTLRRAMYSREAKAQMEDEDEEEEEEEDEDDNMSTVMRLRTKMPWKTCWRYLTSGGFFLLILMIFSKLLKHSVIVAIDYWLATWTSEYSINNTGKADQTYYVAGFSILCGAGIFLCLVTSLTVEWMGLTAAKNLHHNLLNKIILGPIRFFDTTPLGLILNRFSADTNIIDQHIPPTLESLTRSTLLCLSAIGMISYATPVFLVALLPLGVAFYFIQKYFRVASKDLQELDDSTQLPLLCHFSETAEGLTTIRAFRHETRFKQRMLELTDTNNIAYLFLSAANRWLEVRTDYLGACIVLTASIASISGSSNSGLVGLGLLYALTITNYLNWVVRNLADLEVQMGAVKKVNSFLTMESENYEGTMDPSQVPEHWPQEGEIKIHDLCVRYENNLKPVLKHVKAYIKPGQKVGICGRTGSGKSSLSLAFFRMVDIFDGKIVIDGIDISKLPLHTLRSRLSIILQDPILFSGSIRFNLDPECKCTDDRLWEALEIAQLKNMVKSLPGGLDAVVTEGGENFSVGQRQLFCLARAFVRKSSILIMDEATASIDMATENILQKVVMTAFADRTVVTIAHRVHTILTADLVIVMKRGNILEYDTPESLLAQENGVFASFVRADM
T1 sequence (Q14654 whole entry): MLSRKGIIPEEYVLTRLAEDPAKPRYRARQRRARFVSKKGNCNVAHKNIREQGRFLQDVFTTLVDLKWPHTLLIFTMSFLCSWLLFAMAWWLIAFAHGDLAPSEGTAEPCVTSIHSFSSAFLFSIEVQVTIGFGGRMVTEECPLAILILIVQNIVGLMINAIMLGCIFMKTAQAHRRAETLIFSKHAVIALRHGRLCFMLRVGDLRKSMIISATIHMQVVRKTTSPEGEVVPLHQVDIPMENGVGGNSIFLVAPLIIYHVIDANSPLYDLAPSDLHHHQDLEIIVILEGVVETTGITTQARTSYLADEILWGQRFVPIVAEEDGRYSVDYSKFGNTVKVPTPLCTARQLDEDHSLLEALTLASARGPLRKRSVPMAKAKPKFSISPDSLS

EC50 | SMILES
21.4 µM | CC1(C)Oc2ccc(C#N)cc2[C@@H](N2CC3(CCCCC3)CC2=O)[C@@H]1O [Compound 34, 3S-Hydroxy-2,2-dimethyl-4R-(3-oxo-2-aza-spiro[4.5]dec-2-yl)-chroman-6-carbonitrile]
7.77 µM | CC1(C)Oc2ccc(S(=O)(=O)c3cccc(F)c3)cc2[C@@H](Nc2noc3ccc(Cl)cc23)[C@@H]1O [Compound 103, 4R-(5-Chloro-benzo[d]isoxazol-3-ylamino)-6-(3-fluoro-benzenesulfonyl)-2,2-dimethyl-chroman-3S-ol]
> 30 µM | CCN(CC)S(=O)(=O)c1ccc2c(c1)[C@@H](Nc1noc3ccc(Cl)cc13)[C@H](O)C(C)(C)O2 (racemic) [Compound 80, 4R-(5-Chloro-benzo[d]isoxazol-3-ylamino)-3S-hydroxy-2,2-dimethyl-chroman-6-sulfonic acid diethylamide]
> 30 µM | CC1(C)Oc2ccc(C#N)cc2[C@@H](OP(=O)(c2ccccc2)c2ccccc2)[C@@H]1O [Compound 27]
9.12 µM | CC1(C)Oc2ccc(C#N)cc2[C@@H](Nc2nc(=O)c3cc(Cl)ccc3[nH]2)[C@@H]1O [Compound 64, (3S,4R)-4-(6-Chloro-4-oxo-1,4-dihydro-quinazolin-2-ylamino)-3-hydroxy-2,2-dimethyl-chroman-6-carbonitrile]
> 30 µM | CC1(C)Oc2ccc(Cl)cc2[C@@H](Oc2ccn(-c3ccccc3)n2)[C@@H]1O (racemic) [Compound 60, 6-Chloro-2,2-dimethyl-4-(1-phenyl-1H-pyrazol-3-yloxy)-chroman-3-ol]
24.8 µM | CC1(C)Oc2cc(Cl)c(Cl)cc2[C@@H](Nc2noc3ccc(Cl)cc23)[C@@H]1O [Compound 91, 6,7-Dichloro-4R-(5-chloro-benzo[d]isoxazol-3-ylamino)-2,2-dimethyl-chroman-3S-ol]
19.9 µM | CC1(C)C=C(n2nc(-c3ccc(Cl)cc3)ccc2=O)c2cc(C#N)ccc2O1 [Compound 57, 4-[3-(4-Chloro-phenyl)-6-oxo-6H-pyridazin-1-yl]-2,2-dimethyl-2H-chromene-6-carbonitrile]
5.7 µM | CC1(C)Oc2ccc(C#N)cc2[C@@H](n2ccnc2-c2ccc(Cl)cc2)[C@@H]1O (racemic) [Compound 12, 4-[2-(4-Chloro-phenyl)-imidazol-1-yl]-3-hydroxy-2,2-dimethyl-chroman-6-carbonitrile]
8.44 µM | CC1(C)Oc2ccc(C#N)cc2[C@@H](Nc2nc3cc(F)ccc3s2)[C@@H]1O (racemic) [Compound 5, 4-(5-Fluoro-benzothiazol-2-ylamino)-3-hydroxy-2,2-dimethyl-chroman-6-carbonitrile]
1.84 µM | CC1(C)C=C(n2ccnc2-c2ccc(Cl)cc2)c2cc(C#N)ccc2O1 [Compound 54, 4-[2-(4-Chloro-phenyl)-imidazol-1-yl]-2,2-dimethyl-2H-chromene-6-carbonitrile]
> 30 µM | N#Cc1ccc2c(c1)[C@@H](NC(=O)c1cccc(Cl)c1)[C@H](O)C1(CCS(=O)(=O)CC1)O2 [Compound 201, (3S,4R)-3-Chloro-N-[6-cyano-3-hydroxy-2,2-(tetrahydro-4-sulfonylpyranyl)-chroman-4-yl]-benzamide]
> 30 µM | CC1(C)Oc2ccc(S(=O)(=O)c3ccccc3)cc2[C@@H](Nc2noc3c(Cl)cccc23)[C@@H]1O [Compound 87, (3S,4R)-6-Benzenesulfonyl-4R-(7-chloro-benzo[d]isoxazol-3-ylamino)-2,2-dimethyl-chroman-3S-ol]
20.4 µM | CC1(C)Oc2ccc(C(=O)c3ccccc3)cc2[C@@H](Nc2noc3ccc(Cl)cc23)[C@@H]1O [Compound 92, [4R-(5-Chloro-benzo[d]isoxazol-3-ylamino)-3S-hydroxy-2,2-dimethyl-chroman-6-yl]-phenyl-methanone]
29.8 µM | CC1(C)Oc2ccncc2[C@@H](n2nc(-c3ccc(Cl)cc3)ccc2=O)[C@@H]1O (racemic) [Compound 112, 6-(4-Chloro-phenyl)-2-(3-hydroxy-2,2-dimethyl-3,4-dihydro-2H-pyrano[3,2-c]pyridin-4-yl)-2H-pyridazin-3-one]
28.3 µM | CC1(C)C=C(Nc2nc(=O)c3ccccc3[nH]2)c2cc(C#N)ccc2O1 [Compound 46, 2,2-Dimethyl-4-(4-oxo-1,4-dihydro-quinazolin-2-ylamino)-2H-chromene-6-carbonitrile]
19.3 µM | CC1(C)Oc2ccc(C#N)cc2[C@@H](Oc2noc3ccc(F)cc23)[C@@H]1O [Compound 70, (3S,4R)-4-(5-Fluoro-benzo[d]isoxazol-3-yloxy)-3-hydroxy-2,2-dimethyl-chroman-6-carbonitrile]
> 30 µM | CC1(C)Oc2ccc(S(=O)(=O)c3ccccc3)cc2[C@@H](Oc2noc3cc(Cl)ccc23)[C@@H]1O [Compound 77, 6-Benzenesulfonyl-4R-(6-chloro-benzo[d]isoxazol-3-yloxy)-2,2-dimethyl-chroman-3S-ol]
3.71 µM | CC1(C)Oc2ccc(C#N)cc2[C@@H](Oc2cc(N)nc3ccccc23)[C@@H]1O (racemic) [Compound 8, 4-(2-Amino-quinolin-4-yloxy)-3-hydroxy-2,2-dimethyl-chroman-6-carbonitrile]
0.26 µM | CC1(C)Oc2ccc(C#N)cc2[C@@H](Oc2noc3cc(Cl)ccc23)[C@@H]1O [Compound 22, 4R-(6-Chloro-benzo[d]isoxazol-3-yloxy)-3S-hydroxy-2,2-dimethyl-chroman-6-carbonitrile]
> 30 µM | CC1(C)C=C(n2c(N)nc3cc(Cl)ccc32)c2cc(C#N)ccc2O1 [Compound 45, 4-(2-Amino-5-chloro-benzoimidazol-1-yl)-2,2-dimethyl-2H-chromene-6-carbonitrile]
29.7 µM | N#Cc1ccc2c(c1)[C@@H](Oc1noc3cc(Cl)ccc13)[C@H](O)C1(CCS(=O)(=O)CC1)O2 [Compound 200, (3S,4R)-4-(6-Chloro-benzo[d]isoxazol-3-yloxy)-2,2-(tetrahydro-4-sulfonylpyranyl)-3-hydroxy-chroman-6-carbonitrile]
7.33 µM | COc1ccc(S(=O)(=O)c2ccc3c(c2)[C@@H](n2oc4cc(Cl)ccc4c2=O)[C@H](O)C(C)(C)O3)cc1 [Compound 98, 6-Chloro-2-[3S-hydroxy-6-(4-methoxy-benzenesulfonyl)-2,2-dimethyl-chroman-4-yl]-4R-benzo[d]isoxazol-3-one]
> 30 µM | CC1(C)Oc2ccc(C#N)cc2[C@@H](SC2=NCCc3ccccc32)[C@@H]1O [Compound 42, 4R-(3,4-Dihydro-isoquinolin-1-ylsulfanyl)-3S-hydroxy-2,2-dimethyl-chroman-6-carbonitrile]
10.3 µM | CC1(C)Oc2cc(Cl)c(Cl)cc2[C@@H](n2oc3cc(Cl)ccc3c2=O)[C@@H]1O [Compound 94, 6-Chloro-2-(6,7-dichloro-3S-hydroxy-2,2-dimethyl-chroman-4-yl)-R-benzo[d]isoxazol-3-one]
25.7 µM | COc1ccc(S(=O)(=O)c2ccc3c(c2)[C@@H](Nc2noc4ccc(Cl)cc24)[C@H](O)C(C)(C)O3)cc1 [Compound 104, 4R-(5-Chloro-benzo[d]isoxazol-3-ylamino)-6-(4-methoxy-benzenesulfonyl)-2,2-dimethyl-chroman-3S-ol]
6.34 µM | CC1(C)Oc2ccc(C#N)cc2[C@@H](N2CCN(c3ccc(F)cc3)CC2)[C@@H]1O (racemic) [Compound 48, 4-[4-(4-Fluoro-phenyl)-piperazin-1-yl]-3-hydroxy-2,2-dimethyl-chroman-6-carbonitrile]
19.5 µM | CC1(C)Oc2ccncc2[C@@H](Nc2nc3cc(Cl)ccc3s2)[C@@H]1O (racemic) [Compound 106, 4-(5-Chloro-benzothiazol-2-ylamino)-2,2-dimethyl-3,4-dihydro-2H-pyrano[3,2-c]pyridin-3-ol]
> 30 µM | COc1ccc(S(=O)(=O)c2ccc3c(c2)[C@@H](Oc2noc4cc(Cl)ccc24)[C@H](O)C(C)(C)O3)cc1 [Compound 97, 4R-(6-Chloro-benzo[d]isoxazol-3-yloxy)-6-(4-methoxy-benzenesulfonyl)-2,2-dimethyl-chroman-3S-ol]
